Patent publication US8367684B2, “Derivatives of 4-(N-azacycloalkyl) anilides as potassium channel modulators” (Valeant Pharmaceuticals International, priority 2007, dated 2013)

Tested on: potassium ion channels
Test: Rubidium (Rb+) efflux assay in NGF-differentiated PC-12 cells, potassium channel modulation
Type: cell-based
Conditions: depolarization buffer with 15 mM KCl, 10 min at room temperature, read-out: ACTIVITY (EC50, compound's concentration for 50% of maximal Rb+ efflux)
Experimental: Compounds of this invention formula were evaluated as potassium channel modulators by measuring rhubidium release in the following assay.
Methods: PC-12 cells were grown at 37° C. and 5% CO2 in DMEM/F12 Medium supplemented with 10% horse serum, 5% fetal bovine serum, 2 mM glutamine, 100 U/ml penicillin, 100 U/ml streptomycin. They were plated in poly-D-lysine-coated 96-well cell culture microplates at a density of 40,000 cells/well and differentiated with 100 ng/ml NGF-7s for 2-5 days. For the assay, the medium was aspirated and the cells were washed once with 0.2 ml in wash buffer (25 mM Hepes, pH 7.4, 150 mM NaCl, 1 mM MgCl2, 0.8 mM NaH2PO4, 2 mM CaCl2). The cells were then loaded with 0.2 ml Rb^+ loading buffer (wash buffer plus 5.4 mM […], 5 mM glucose) and incubated at 37° C. for 2 h. Attached cells were quickly washed three times with buffer (same as Rb^+ loading buffer, but containing 5.4 mM KCl instead of RbCl) to remove extracellular Rb^+. Immediately following the wash, 0.2 ml of depolarization buffer (wash buffer plus 15 mM KCl) with or without compounds was added to the cells to activate efflux of potassium ion channels. After incubation for 10 min at room temperature, the supernatant was carefully removed and collected. Cells were lysed by the addition of 0.2 ml of lysis buffer (depolarization buffer plus 0.1% Triton X-100) and the cell lysates were also collected. If collected samples were not immediately analyzed for Rb^+ contents by atomic absorption spectroscopy (see below), they were stored at 4° C. without any negative effects on subsequent Rb^+ analysis.
The concentration of Rb^+ in the supernatants (Rb^+Sup) and cell lysates (Rb^+Lys) was quantified using an ICR8000 flame atomic absorption spectrometer (Aurora Biomed Inc., Vancouver, B.C.) under conditions defined by the manufacturer. One 0.05 ml samples were processed automatically from microtiter plates by dilution with an equal volume of Rb^+ sample analysis buffer and injection into an air-acetylene flame. The amount of Rb^+ in the sample was measured by absorption at 780 nm using a hollow cathode lamp as light source and a PMT detector. A calibration curve covering the range 0-5 mg/L Rb^+ in sample analysis buffer was generated with each set of plates. The percent Rb^+ efflux (F) was defined by F=[Rb^+sup/(Rb^+sup+Rb^+Lys)]×100%.
The effect (E) of a compound was defined by: E=[(Fc−Fb)/(Fs−Fb)]×100% where the Fc is the efflux in the presence of compound in depolarization buffer, Fb is the efflux in basal buffer, and Fs is the efflux in depolarization buffer, and Fc is the efflux in the presence of compound in depolarization buffer. The effect (E) and compound concentration relationship was plotted to calculate an EC50 value, a compound's concentration for 50% of maximal Rb^+ efflux. Legend: A: EC50=1 nM-50 nM; B: EC50=50 nM-100 nM; C: EC50=100-200 nM.

SMILES	EC50 [µM]
Cc1cc(N2CCc3cc(F)ccc3C2)nc(C)c1NC(=O)CC(C)(C)C	0.001 to 0.05
COc1nc(N2CCc3cc(F)ccc3C2)nc(OC)c1NC(=O)CC(C)(C)C	0.001 to 0.05

Now from value to compound:

EC50 [µM]	SMILES
0.001 to 0.05	Cc1cc(N2CCc3ccccc3C2)nc(C)c1NC(=O)CC(C)(C)C
0.001 to 0.05	Cc1cc(N2CCc3cc(C(F)(F)F)ccc3C2)nc(C)c1NC(=O)CC(C)(C)C
0.001 to 0.05	COc1nc(N2CCc3ccccc3C2)nc(OC)c1NC(=O)CC(C)(C)C
0.05 to 0.1	Cc1nc(N2CCc3ccccc3C2)nc(C)c1NC(=O)CC(C)(C)C
